Drawing on PubChem BioAssay (NCI), this text covers GI50 and TGI for 10 compounds.

Test systems include CAKI-1 renal; IGROV1 ovarian; MCF7 breast; OVCAR-8 ovarian; HCT-15 colon; HOP-62 NSCLC; HT29 colon; SF-539 CNS; SN12C renal; UACC-257 melanoma.
What all share (test): NCI tumour cell line growth inhibition, 48 h

Where “and” joins values, the source holds several entries; their conditions need not be identical. Equal values may be shown once.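 Grown in 96-well plates, cells were treated for 48 hours with each compound at five concentrations. Insufficient inhibition: endpoint recorded as highest concentration tested. The concentration for 50% growth inhibition is given as GI50. TGI denotes the concentration required for complete inhibition of growth.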

Take `c1ccc(Cn2cnc3ccc(-c4nc(-c5ccc6c(c5)ncn6C5CCCCC5)cn5ccnc45)cc32)cc1`: the GI50 is 2450 nM in the test on CAKI-1 renal, 2140 nM in the test on IGROV1 ovarian, 2720 nM with MCF7 breast and 2600 nM in the test with OVCAR-8 ovarian. For the same compound, the TGI is > 100000 nM in the test with CAKI-1 renal, > 100000 nM in the test with IGROV1 ovarian, > 100000 nM in the test on MCF7 breast and 6540 nM with OVCAR-8 ovarian.

For the compound `COCCOCCOCc1n(Cc2ccc3ccccc3n2)c2ccccc2[n+]1Cc1ccc2ccccc2c1`, the GI50 is 3480 nM in the test with HCT-15 colon; 468 nM with HOP-62 NSCLC; 292 nM in the test on HT29 colon; 351 nM with IGROV1 ovarian; 317 nM in the test with MCF7 breast; 498 nM in the test on OVCAR-8 ovarian. Further, the values for the GI50 in the test on SF-539 CNS, with SN12C renal and in the test on UACC-257 melanoma were 338 nM, 362 nM and 293 nM, respectively. Moreover, the TGI with HCT-15 colon was 13600 nM; in the test with HOP-62 NSCLC, 2520 nM; with HT29 colon, 1430 nM; in the test with IGROV1 ovarian it was 1660 nM; with MCF7 breast it was 1340 nM; in the test on OVCAR-8 ovarian, 1920 nM. For the same compound, the TGI with SF-539 CNS amounted to 1400 nM; in the test on SN12C renal, 1410 nM; in the test on UACC-257 melanoma it was 877 nM.

Take `Cc1ccc2c(c1)Sc1ccc(N=NN(C)C)cc1N2C`: the TGI in the test on CAKI-1 renal, in the test with HCT-15 colon, in the test on HOP-62 NSCLC, with HT29 colon, with IGROV1 ovarian and in the test with MCF7 breast was > 100000 nM in each case. The TGI in the test on OVCAR-8 ovarian and in the test on SN12C renal was > 100000 nM in each case.

As for `CC1(C)CC[C@H](C2=CC(=O)c3c(O)ccc(O)c3C2=O)O1`, the GI50 was 1110 nM and 1380 nM and 480 nM in the test on CAKI-1 renal; 1710 nM and 378 nM and 226 nM with HCT-15 colon; 3170 nM and 1720 nM and 773 nM with HT29 colon; 4930 nM and 2480 nM and 1610 nM with IGROV1 ovarian; 2270 nM and 675 nM and 581 nM in the test with OVCAR-8 ovarian; 2600 nM and 1510 nM and 382 nM in the test on SN12C renal. In addition, the GI50 in the test on UACC-257 melanoma is 1990 nM and 1380 nM and 391 nM. The TGI with CAKI-1 renal was 2440 nM and 2720 nM and 1170 nM; in the test with HCT-15 colon, 4110 nM and 1640 nM and 650 nM; in the test on HOP-62 NSCLC, 9960 nM and 6570 nM; in the test on HT29 colon, 7290 nM and 3630 nM and 1830 nM; with IGROV1 ovarian, 9580 nM and 5310 nM and 3210 nM; with MCF7 breast, 739 nM and 337 nM. Further, the TGI in the test on OVCAR-8 ovarian was 20400 nM and 3440 nM and 2120 nM; in the test with UACC-257 melanoma, 4770 nM and 2670 nM and 1080 nM.

As to `CC(CC(=O)Nc1ccc(NC(=O)CC(C)N=NC(N)=S)cc1)N=NC(N)=S` (configuration not stated), the TGI in the test on CAKI-1 renal, with HCT-15 colon, in the test with HOP-62 NSCLC, in the test with HT29 colon, in the test with IGROV1 ovarian and in the test on OVCAR-8 ovarian was > 100000 nM each time. In addition, the TGI in the test with SF-539 CNS, in the test on SN12C renal and in the test on UACC-257 melanoma was > 100000 nM in each case.

As to `CC1=C(C(=O)Nc2ccccc2C)C(/C=C/c2ccccc2)C(C(=O)Nc2ccccc2C)=C(C)N1`, the TGI in the test with CAKI-1 renal, with HCT-15 colon, with HOP-62 NSCLC, in the test on HT29 colon, in the test with IGROV1 ovarian and with OVCAR-8 ovarian was > 100000 nM in each case. The TGI with SF-539 CNS, with SN12C renal and in the test with UACC-257 melanoma was > 100000 nM throughout.

For the compound `CCCCCCCCCCCCCC(=O)OCC1OC(=O)CC1O` (configuration not stated), the TGI in the test on CAKI-1 renal is > 100000 nM; in the test with HCT-15 colon, 74500 nM; in the test on HOP-62 NSCLC, > 100000 nM; in the test with HT29 colon, > 100000 nM; with IGROV1 ovarian, > 100000 nM; with OVCAR-8 ovarian, > 100000 nM. For the same compound, the TGI in the test with SF-539 CNS, with SN12C renal and with UACC-257 melanoma was > 100000 nM each time.

Regarding `CC1(C)OC2COC3(CNO)OC(C)(C)OC3C2O1` (configuration not stated), the TGI with CAKI-1 renal, in the test with HCT-15 colon, in the test on HOP-62 NSCLC, with HT29 colon, in the test with IGROV1 ovarian and in the test with OVCAR-8 ovarian was > 100000 nM each time. The TGI in the test on SF-539 CNS, in the test with SN12C renal and in the test on UACC-257 melanoma was > 100000 nM in each case.

For `NC(N)=NS(=O)(=O)c1ccc(NC(=O)c2cccc3c(Nc4ccc(S(N)(=O)=O)cc4)c4ccccc4nc23)cc1`, the TGI in the test on CAKI-1 renal, in the test with HCT-15 colon, with HOP-62 NSCLC, in the test on HT29 colon, in the test with IGROV1 ovarian and in the test on OVCAR-8 ovarian was > 100000 nM each time. Moreover, the TGI in the test with SF-539 CNS, in the test on SN12C renal and in the test with UACC-257 melanoma was > 100000 nM throughout.

Take `Cc1cc(Nc2nc(SCc3ccc(C(=O)Nc4ccc(F)cc4N)cc3)nn3cccc23)n[nH]1`: the GI50 with HCT-15 colon is 424 nM; with HOP-62 NSCLC it was 556 nM; with HT29 colon, 322 nM; with IGROV1 ovarian, 558 nM; in the test with MCF7 breast, 51.8 nM; in the test with OVCAR-8 ovarian it was 483 nM. The values for the GI50 with SF-539 CNS, with SN12C renal and with UACC-257 melanoma were 282 nM, 1250 nM and 3690 nM, respectively. The TGI was > 100000 nM in the test on HCT-15 colon; > 100000 nM with HOP-62 NSCLC; 10100 nM in the test with HT29 colon; 62000 nM in the test on IGROV1 ovarian; 29300 nM with MCF7 breast; 88000 nM with OVCAR-8 ovarian. Further, the figures for the TGI in the test on SF-539 CNS, in the test on SN12C renal and in the test with UACC-257 melanoma were 17400 nM, > 100000 nM and 32400 nM, respectively.
